Assay [1] addresses Vascular endothelial growth factor receptor 2 (Homo sapiens, UniProt P35968). In kind it is functional.
For assay [2], the target named is Acetylcholinesterase (Homo sapiens, UniProt P22303). In kind it is functional.
Assay [3] concerns the target T1, Prostaglandin G/H synthase 1 (Homo sapiens, UniProt P23219). In kind it is functional.
In assay [4] the target is 5-hydroxytryptamine receptor 2B (Homo sapiens, UniProt P41595). In kind it is functional, cell-based.
Assay [5] addresses T2, Thromboxane A2 receptor (Homo sapiens, UniProt P21731).
T2 sequence (P21731 whole entry): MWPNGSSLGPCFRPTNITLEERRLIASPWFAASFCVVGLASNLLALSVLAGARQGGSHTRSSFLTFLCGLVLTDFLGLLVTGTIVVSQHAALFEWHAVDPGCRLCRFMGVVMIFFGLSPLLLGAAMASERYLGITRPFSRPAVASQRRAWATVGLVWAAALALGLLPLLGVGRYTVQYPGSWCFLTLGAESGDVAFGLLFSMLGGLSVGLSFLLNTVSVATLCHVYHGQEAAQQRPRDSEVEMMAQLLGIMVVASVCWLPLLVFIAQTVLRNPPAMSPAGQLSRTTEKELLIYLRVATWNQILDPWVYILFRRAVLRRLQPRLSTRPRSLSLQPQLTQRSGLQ
In kind it is functional, cell-based.

Assay [6] addresses T3, Progesterone receptor (Homo sapiens, UniProt P06401).
T3 sequence (P06401 whole entry): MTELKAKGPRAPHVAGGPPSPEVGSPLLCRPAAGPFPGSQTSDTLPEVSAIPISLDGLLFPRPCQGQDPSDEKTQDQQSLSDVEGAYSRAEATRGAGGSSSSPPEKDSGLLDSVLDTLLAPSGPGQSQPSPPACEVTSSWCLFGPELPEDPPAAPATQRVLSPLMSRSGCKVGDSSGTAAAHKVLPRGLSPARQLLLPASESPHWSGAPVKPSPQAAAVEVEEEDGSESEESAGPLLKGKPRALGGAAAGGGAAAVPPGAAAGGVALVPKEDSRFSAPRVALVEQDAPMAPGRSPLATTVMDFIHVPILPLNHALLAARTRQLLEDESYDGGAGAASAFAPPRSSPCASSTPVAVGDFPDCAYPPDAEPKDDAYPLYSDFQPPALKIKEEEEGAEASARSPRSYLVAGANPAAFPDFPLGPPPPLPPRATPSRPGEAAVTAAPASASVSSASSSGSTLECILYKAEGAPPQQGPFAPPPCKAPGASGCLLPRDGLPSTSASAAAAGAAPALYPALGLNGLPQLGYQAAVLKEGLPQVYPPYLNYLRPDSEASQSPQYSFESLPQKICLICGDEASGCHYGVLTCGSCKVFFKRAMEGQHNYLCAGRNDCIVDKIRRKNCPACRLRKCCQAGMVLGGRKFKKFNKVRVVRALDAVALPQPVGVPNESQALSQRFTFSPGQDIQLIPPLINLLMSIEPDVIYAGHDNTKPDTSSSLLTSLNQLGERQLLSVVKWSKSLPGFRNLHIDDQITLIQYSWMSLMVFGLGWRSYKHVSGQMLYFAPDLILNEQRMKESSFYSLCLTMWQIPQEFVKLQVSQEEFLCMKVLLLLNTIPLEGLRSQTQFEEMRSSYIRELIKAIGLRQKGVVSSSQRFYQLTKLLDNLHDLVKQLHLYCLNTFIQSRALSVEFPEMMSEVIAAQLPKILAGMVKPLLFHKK

Assay [7] concerns the target T1, Prostaglandin G/H synthase 1. In kind it is functional. This is another data set of the same source.
Assay [8] addresses T2, Thromboxane A2 receptor. In kind it is functional, cell-based. This is another data set of the same source.
Assay [9] concerns the target D(1A) dopamine receptor (Homo sapiens, UniProt P21728).
Assay [10] has as its target Sodium-dependent noradrenaline transporter (Homo sapiens, UniProt P23975).
In assay [11] the target is cGMP-inhibited 3',5'-cyclic phosphodiesterase 3A (Homo sapiens, UniProt Q14432). In kind it is functional.
Assay [12] addresses T4, Amine oxidase [flavin-containing] A (Homo sapiens, UniProt P21397).
T4 sequence (P21397 whole entry): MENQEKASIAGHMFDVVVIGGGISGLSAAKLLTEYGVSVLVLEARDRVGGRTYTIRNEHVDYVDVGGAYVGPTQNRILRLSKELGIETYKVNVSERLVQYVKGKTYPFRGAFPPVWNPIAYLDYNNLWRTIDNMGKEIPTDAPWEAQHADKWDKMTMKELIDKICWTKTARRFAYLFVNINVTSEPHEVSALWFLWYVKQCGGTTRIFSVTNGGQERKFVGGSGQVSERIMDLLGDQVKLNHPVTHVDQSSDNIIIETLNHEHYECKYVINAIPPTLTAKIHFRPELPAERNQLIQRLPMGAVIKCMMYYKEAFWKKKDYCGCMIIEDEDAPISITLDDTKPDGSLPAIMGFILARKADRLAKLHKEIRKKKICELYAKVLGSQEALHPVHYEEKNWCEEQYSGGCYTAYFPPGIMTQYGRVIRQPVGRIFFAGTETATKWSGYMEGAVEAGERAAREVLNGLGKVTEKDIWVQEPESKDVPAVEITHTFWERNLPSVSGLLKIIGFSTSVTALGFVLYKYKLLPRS
In kind it is functional.

Assay [13] addresses Prothrombin (Homo sapiens, UniProt P00734). In kind it is functional.
Assay [14] concerns the target T5, 5-hydroxytryptamine receptor 1A (Homo sapiens, UniProt P08908).
T5 sequence (P08908 whole entry): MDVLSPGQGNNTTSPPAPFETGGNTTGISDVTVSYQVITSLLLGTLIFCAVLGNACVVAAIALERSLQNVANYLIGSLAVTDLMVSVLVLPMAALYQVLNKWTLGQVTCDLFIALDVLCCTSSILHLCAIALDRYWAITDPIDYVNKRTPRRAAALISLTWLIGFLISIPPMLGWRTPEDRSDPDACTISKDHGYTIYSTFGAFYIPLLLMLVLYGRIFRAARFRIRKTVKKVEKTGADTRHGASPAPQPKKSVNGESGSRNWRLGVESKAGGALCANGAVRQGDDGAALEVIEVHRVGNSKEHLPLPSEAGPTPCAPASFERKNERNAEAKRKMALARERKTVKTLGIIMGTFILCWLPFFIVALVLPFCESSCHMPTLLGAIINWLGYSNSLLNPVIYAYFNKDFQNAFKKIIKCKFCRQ

For assay [15], the target named is Sodium-dependent dopamine transporter (Homo sapiens, UniProt Q01959).
Sequence of Sodium-dependent dopamine transporter (Q01959 whole entry): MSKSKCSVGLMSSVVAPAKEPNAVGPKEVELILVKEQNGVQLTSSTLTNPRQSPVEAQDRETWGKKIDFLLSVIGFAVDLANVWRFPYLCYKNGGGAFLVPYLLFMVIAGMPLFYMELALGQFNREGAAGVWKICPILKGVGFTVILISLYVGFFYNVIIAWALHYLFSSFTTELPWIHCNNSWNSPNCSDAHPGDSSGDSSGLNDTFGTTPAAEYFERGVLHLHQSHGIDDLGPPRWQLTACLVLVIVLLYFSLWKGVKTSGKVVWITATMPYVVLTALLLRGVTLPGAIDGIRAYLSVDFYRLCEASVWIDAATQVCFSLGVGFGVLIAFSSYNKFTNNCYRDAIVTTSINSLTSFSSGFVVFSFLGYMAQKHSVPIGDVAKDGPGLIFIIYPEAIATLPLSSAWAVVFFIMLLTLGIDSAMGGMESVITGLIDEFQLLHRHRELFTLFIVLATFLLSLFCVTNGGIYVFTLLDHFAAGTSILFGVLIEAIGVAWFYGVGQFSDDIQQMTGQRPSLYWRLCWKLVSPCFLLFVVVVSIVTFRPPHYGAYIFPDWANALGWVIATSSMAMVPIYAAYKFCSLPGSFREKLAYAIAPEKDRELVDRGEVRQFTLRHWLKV
Note: assay procedure not described here.

T1 sequence (P23219 whole entry): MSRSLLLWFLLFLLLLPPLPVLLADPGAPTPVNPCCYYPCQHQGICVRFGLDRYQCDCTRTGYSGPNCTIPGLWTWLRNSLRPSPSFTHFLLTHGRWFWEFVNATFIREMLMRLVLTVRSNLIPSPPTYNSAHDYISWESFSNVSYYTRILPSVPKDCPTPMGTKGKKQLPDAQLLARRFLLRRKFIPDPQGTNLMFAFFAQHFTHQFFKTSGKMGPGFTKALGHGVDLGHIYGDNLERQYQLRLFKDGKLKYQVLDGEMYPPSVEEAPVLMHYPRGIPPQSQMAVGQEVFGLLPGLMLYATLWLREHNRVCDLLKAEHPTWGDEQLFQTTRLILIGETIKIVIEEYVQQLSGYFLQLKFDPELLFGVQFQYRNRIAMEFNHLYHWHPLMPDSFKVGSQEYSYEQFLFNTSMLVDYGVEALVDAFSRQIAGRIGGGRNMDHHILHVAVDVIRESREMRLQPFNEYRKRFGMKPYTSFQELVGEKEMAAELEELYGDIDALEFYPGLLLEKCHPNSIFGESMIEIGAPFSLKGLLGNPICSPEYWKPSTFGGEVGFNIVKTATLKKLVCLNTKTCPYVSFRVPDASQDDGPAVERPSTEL
Sequence of Acetylcholinesterase (P22303 whole entry): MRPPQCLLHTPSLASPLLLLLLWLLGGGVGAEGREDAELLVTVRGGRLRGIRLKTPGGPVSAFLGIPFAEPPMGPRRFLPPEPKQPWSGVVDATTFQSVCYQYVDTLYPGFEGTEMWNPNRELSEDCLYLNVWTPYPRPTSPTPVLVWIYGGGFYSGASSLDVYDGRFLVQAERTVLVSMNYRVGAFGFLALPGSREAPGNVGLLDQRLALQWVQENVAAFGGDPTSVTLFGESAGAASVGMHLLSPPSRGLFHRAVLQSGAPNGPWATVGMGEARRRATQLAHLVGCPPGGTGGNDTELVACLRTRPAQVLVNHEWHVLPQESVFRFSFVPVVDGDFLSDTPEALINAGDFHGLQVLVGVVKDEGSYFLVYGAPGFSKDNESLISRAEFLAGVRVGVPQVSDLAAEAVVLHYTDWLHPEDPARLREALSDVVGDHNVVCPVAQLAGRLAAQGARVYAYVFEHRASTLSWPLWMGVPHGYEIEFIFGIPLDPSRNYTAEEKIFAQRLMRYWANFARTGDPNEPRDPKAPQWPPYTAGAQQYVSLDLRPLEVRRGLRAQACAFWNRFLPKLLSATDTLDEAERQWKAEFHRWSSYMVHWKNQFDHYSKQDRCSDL
Sequence of Vascular endothelial growth factor receptor 2 (P35968 whole entry): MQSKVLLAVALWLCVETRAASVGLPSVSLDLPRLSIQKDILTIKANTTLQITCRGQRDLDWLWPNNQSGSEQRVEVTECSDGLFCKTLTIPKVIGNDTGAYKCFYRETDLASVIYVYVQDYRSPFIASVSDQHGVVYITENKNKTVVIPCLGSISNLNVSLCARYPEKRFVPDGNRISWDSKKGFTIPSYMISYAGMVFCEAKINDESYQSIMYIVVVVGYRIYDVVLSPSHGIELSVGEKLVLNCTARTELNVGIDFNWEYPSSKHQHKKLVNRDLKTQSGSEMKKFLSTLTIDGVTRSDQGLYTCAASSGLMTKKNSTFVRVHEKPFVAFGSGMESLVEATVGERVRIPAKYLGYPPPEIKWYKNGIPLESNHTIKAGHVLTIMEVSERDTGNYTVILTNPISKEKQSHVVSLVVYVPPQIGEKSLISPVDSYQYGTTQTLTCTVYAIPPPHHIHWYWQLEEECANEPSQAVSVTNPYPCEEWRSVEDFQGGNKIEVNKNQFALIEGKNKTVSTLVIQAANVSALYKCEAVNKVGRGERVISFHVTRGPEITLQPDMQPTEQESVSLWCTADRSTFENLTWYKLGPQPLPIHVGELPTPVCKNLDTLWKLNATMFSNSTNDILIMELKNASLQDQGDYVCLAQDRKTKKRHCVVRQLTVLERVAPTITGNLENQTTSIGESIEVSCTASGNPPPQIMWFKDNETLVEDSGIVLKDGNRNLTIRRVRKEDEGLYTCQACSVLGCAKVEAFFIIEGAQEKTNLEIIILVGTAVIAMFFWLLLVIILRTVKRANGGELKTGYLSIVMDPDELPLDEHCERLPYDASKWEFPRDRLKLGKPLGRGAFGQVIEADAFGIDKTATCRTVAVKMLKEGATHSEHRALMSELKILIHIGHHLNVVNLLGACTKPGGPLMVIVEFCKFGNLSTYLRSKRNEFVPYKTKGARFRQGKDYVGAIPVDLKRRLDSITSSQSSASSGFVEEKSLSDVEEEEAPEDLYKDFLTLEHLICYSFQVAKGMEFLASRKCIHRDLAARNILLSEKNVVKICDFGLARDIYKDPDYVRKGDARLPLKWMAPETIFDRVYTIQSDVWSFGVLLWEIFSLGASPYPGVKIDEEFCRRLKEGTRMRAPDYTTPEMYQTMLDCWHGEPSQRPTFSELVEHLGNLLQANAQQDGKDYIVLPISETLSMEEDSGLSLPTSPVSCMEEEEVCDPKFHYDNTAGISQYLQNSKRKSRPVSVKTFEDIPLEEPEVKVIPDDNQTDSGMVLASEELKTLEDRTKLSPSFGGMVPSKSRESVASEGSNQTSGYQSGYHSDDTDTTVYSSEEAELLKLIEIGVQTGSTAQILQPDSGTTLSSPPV
Sequence of Sodium-dependent noradrenaline transporter (P23975 whole entry): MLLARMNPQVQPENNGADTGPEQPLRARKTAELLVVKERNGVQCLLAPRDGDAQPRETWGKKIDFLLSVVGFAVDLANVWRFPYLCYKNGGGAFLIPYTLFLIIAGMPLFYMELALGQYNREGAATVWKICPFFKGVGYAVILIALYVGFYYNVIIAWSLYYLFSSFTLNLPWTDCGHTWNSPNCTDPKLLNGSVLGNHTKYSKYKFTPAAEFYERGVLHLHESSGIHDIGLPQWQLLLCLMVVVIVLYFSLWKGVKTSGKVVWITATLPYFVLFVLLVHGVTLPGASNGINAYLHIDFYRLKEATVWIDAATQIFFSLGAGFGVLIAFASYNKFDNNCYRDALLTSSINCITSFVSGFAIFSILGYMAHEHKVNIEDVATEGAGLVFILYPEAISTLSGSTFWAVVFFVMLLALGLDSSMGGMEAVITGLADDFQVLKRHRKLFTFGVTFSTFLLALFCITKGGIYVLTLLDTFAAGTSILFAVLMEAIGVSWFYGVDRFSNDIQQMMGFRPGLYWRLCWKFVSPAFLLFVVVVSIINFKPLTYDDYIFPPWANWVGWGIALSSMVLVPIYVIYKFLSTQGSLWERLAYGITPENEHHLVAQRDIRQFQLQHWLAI
Sequence of 5-hydroxytryptamine receptor 2B (P41595 whole entry): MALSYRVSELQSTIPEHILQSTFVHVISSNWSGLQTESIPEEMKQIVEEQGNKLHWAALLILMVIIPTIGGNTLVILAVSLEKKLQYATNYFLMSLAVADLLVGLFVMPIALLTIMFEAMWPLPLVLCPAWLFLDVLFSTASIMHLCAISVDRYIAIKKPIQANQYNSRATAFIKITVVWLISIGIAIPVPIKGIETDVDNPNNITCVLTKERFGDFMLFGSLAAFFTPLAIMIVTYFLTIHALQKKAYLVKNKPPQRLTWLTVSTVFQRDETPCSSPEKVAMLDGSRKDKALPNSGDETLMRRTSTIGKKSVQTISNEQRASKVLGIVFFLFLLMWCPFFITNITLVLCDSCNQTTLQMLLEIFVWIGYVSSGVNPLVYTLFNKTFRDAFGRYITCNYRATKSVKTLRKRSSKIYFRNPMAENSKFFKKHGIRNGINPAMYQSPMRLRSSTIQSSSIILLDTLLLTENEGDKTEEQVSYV
Sequence of D(1A) dopamine receptor (P21728 whole entry): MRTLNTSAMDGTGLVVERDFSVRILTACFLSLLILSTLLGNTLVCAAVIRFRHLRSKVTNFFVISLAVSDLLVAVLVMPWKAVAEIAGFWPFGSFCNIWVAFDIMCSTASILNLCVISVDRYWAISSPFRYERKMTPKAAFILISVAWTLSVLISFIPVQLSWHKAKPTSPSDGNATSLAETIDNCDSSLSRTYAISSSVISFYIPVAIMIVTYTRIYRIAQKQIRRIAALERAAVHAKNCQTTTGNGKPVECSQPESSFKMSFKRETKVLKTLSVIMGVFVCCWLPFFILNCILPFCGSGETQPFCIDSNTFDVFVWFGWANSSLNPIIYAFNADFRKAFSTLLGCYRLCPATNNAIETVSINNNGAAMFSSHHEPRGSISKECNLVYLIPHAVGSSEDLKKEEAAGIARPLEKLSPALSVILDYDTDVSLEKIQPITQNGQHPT

Turning to `CN1C(C(=O)Nc2ccccn2)=C(OC(=O)/C=C/c2ccccc2)c2ccccc2S1(=O)=O` [PIROXICAM CINNAMATE], the AC50 in assay [1], in assay [2], in [3], in [4], in assay [5] and in [6] was over 30 µM throughout. Besides, the AC50 (usually the midpoint of the concentration-response curve, whichever way the signal moves) is 16.3 µM in assay [7]; over 30 µM in [8]; over 30 µM in assay [9]; over 30 µM in [10]; over 30 µM in [11]; over 10 µM in [12]. The values for the AC50 in assay [13], in assay [14] and in [15] were over 30 µM, 13.4 µM and over 30 µM, respectively.
For `Cc1c(C(C)C)c(=O)n(-c2ccccc2)n1C` [PROPYPHENAZONE], the AC50 in [1], in assay [2], in [3], in assay [4], in assay [5] and in assay [6] was over 30 µM each time. For the same molecule, the half-maximal activity concentration (AC50) in assay [7], in assay [8], in assay [9], in [10], in assay [11] and in assay [12] was over 30 µM in each case. In addition, the AC50 in assay [13], in [14] and in assay [15] was over 30 µM throughout.
In the case of `Cc1ncc(CO)c(CO)c1O` [PYRIDOXINE], the AC50 in assay [1] is over 30 µM; in assay [2], over 30 µM; in [3], over 3 µM; in [4] it was over 30 µM; in [5] it was over 30 µM; in [6], over 30 µM. Besides, the AC50 in [7], in [8], in [9], in assay [10], in [11] and in assay [12] was over 30 µM in each case. Also, the AC50 in assay [13], in assay [14] and in [15] was over 30 µM throughout.
`Cc1cn(-c2cc(NC(=O)c3ccc(C)c(Nc4nccc(-c5cnccn5)n4)c3)cc(C(F)(F)F)c2)cn1` [RADOTINIB]: the AC50 is 1.54 µM in [1]; over 10 µM in assay [2]; over 30 µM in assay [3]; over 30 µM in [4]; over 30 µM in assay [5]; over 30 µM in assay [6]. Further, the concentration at half-maximal activity (AC50) is 26 µM in assay [7]; over 30 µM in assay [8]; over 30 µM in [9]; over 30 µM in assay [10]; over 3 µM in assay [11]; over 30 µM in assay [12]. For the same molecule, the AC50 in assay [13], in [14] and in [15] was over 30 µM in each case.
Consider `CO[C@H]1/C=C/O[C@@]2(C)Oc3c(C)c(O)c4c(c3C2=O)C2=NC3(CCN(CC(C)C)CC3)NC2=C(NC(=O)/C(C)=C\C=C\[C@H](C)[C@H](O)[C@@H](C)[C@@H](O)[C@@H](C)[C@H](OC(C)=O)[C@@H]1C)C4=O` [RIFABUTIN], for which the AC50 is over 30 µM in assay [1]; over 30 µM in assay [2]; 17.4 µM in assay [3]; over 30 µM in [4]; over 30 µM in assay [5]; over 30 µM in assay [6]. The AC50 was 17.7 µM in assay [7]; over 30 µM in assay [8]; over 30 µM in assay [9]; over 30 µM in assay [10]; over 30 µM in assay [11]; over 30 µM in assay [12]. Besides, the AC50 in assay [13], in [14] and in assay [15] was over 30 µM throughout.
Consider `COC(=O)N(C)c1c(N)nc(-c2nn(Cc3ccccc3F)c3ncccc23)nc1N` [RIOCIGUAT], for which the AC50 in assay [1], in [2], in [3], in assay [4], in [5] and in assay [6] was over 30 µM each time. The concentration at half-maximal activity (AC50) in assay [7], in assay [8], in assay [9], in assay [10], in assay [11] and in assay [12] was over 30 µM in each case. The AC50 in [13], in [14] and in assay [15] was over 30 µM throughout.
As to `C[C@@H]1CN(c2c(F)c(N)c3c(=O)c(C(=O)O)cn(C4CC4)c3c2F)C[C@H](C)N1` [SPARFLOXACIN], the AC50 in assay [1], in assay [2], in assay [3], in assay [4], in [5] and in [6] was over 30 µM in each case. Moreover, the AC50 in [7], in assay [8], in assay [9], in assay [10], in assay [11] and in [12] was over 30 µM throughout. Also, the AC50 in [13], in assay [14] and in [15] was over 30 µM in each case.
Consider `COc1ncnc(NS(=O)(=O)c2ccc(N)cc2)c1OC` [SULFADOXINE], for which the AC50 in [1], in assay [2], in [3], in assay [4], in [5] and in assay [6] was over 30 µM throughout. Also, the AC50 in [7], in assay [8], in assay [9], in assay [10], in assay [11] and in assay [12] was over 30 µM each time. For the same molecule, the concentration at half-maximal activity (AC50) in assay [13], in [14] and in assay [15] was over 30 µM each time.

Values taken from ChEMBL document CHEMBL5291721, “A preclinical secondary pharmacology resource illuminates target-adverse drug reaction associations of marketed drugs” (Nat Commun, 2023).
